One compound from patent US20070264679A1, “Method for analyzing the activity of lipoxygenase using a water-soluble substrate” (Chungnam National University Industry Collaboration …, priority 2006, published 2007) can be followed below.

As a reminder, the Km is the concentration of substrate that gives half-maximal velocity.

In one assay the target is T1, leukocyte LOX (Sus scrofa, UniProt P16469).
T1 construct: purchased Cayman Chemical Co. (Ann Arbor, Mich., USA)
T1 sequence (P16469 1-663): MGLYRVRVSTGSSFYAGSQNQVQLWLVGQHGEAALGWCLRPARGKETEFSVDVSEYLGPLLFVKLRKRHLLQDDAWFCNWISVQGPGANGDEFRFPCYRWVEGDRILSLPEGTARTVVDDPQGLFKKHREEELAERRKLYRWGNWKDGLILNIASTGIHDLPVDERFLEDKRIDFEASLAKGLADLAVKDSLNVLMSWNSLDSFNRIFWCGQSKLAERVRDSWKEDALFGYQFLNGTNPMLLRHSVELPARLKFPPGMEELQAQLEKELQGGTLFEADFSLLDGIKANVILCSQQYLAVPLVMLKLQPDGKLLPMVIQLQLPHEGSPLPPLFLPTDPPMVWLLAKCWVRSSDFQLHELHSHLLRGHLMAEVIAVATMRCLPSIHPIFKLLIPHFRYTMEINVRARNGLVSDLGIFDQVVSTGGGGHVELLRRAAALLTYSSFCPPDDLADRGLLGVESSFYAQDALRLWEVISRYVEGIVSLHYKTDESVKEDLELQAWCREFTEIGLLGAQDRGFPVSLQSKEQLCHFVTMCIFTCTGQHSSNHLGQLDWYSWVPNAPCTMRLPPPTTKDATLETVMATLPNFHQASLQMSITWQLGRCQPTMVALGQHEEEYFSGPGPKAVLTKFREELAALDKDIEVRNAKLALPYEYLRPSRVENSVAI
As to the kind of experiment: Position specificity of leukocyte LOX in oxygenation of arachidonoyl-lysoPC (SP-HPLC of HETE). It counts as biochemical, porcine. As to conditions: predominant product 12-HETE. Here is the method: After 30 min incubation, the reaction was stopped by the addition of sodium borohydride to reduce hydroperoxy compounds to their corresponding alcohols, which were subjected to alkaline hydrolysis. After 30 min incubation at 60° C. under N2, the mixture was subjected to lipid extraction as described previously (Leon et al, J. Agric. Food. Chem. 52 (2004) 1207-1211). Finally, the lipid extract was analyzed by SP-HPLC system equipped with silica gel column (4 μm, 150×3.9 mm, Waters, USA), which was eluted (1 ml/min) with n-hexane/isopropyl alcohol/acetic acid (100:1:0.05). The identification of hydrolysis products was carried out in comparison with each standard compound, 15-hydroxyeicosatetraenoic acid (HETE) or 12-HETE.
To establish the position of oxygenation of arachidonoyl chain in arachidonoyl-lysoPC, hydroperoxyeicosatetraenoyl-lysoPC was subjected to NaBH4 reduction, followed by saponification in alkaline medium, to afford hydroxyeicosatetraenoic acid, which was further purified by SP-HPLC.

In the next assay the target is T2, soybean LOX-1 (Glycine max, UniProt P08170).
T2 construct: purchased Sigma-Aldrich Corp (St. Louis, Mo., USA) lipoxidase Type I-B
T2 sequence (P08170 1-839): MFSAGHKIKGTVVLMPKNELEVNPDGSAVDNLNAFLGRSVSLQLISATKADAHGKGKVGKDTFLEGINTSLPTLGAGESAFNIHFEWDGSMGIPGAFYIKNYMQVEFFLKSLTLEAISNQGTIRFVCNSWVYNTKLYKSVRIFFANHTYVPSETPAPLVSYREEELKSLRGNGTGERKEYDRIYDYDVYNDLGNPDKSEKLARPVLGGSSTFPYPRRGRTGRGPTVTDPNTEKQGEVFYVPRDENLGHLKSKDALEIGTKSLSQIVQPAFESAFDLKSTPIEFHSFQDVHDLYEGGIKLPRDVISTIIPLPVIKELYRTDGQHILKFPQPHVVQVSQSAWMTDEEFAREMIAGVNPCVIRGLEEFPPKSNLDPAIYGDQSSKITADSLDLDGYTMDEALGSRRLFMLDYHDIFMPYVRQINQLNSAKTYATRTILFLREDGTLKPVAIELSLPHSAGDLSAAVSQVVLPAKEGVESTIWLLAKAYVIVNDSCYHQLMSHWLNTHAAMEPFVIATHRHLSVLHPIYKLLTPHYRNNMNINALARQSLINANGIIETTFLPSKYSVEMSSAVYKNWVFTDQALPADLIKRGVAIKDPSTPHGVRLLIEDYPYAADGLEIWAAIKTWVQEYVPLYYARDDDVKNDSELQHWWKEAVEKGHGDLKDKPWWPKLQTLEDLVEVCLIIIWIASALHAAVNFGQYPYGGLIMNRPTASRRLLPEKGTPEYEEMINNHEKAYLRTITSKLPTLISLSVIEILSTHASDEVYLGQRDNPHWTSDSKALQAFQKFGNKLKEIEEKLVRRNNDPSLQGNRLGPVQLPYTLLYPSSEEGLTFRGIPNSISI
Kind of assay: Kinetics of oxygenation of arachidonic acid or arachidonoyl-lysophospholipids by soybean LOX-1. As to conditions: soybean LOX-1 2.5 units/ml; for Km: 50 mM borax buffer pH 9.0, 25° C.; for Vm: 50 mM borax buffer pH 9.0, unit = one nanomole conjugated diene per min. Type of assay: biochemical. Here is the method:
Activities of various LOXs were monitored by measuring the increase in absorbance at 234 nm due to the formation of hydroperoxide (ε234=25,000 M^−1 cm^−1) at 25° C. as described before (Smith et al, J. Biol. Chem. 247 (1972) 1038-1047). One unit is defined as the amount of LOXs that can produce one nanomole of conjugated diene per min. The reaction mixture (500 μl) included reticulocyte LOX (2 units/ml) in 50 mM phosphate buffer (pH 7.4), porcine leukocyte LOX (1 unit/ml) in 100 mM phosphate buffer (pH 7.5) containing 5 mM EDTA and 0.03% Tween 20, or soybean LOX-1 (2.5 units/ml) in 50 mM borax buffer (pH 9.0) at 25° C. The reactions were started by including each substrate (100 μM) into the above reaction mixture.
Reticulocyte LOX (2 units/ml), leukocyte LOX (1 units/ml) or soybean LOX-1 (2.5 units/ml) was incubated with each arachidonoyl derivative substrate of various concentrations as described above. The values of kinetic parameters were obtained according to Lineweaver Burke plot analyses as described before (Barroso et al, J. Chromatogr. B. Analyt. Technol. Biomed. Life. Sci. 814 (2005) 21-28).

Bounds are passed on as bounds.

For the compound `CCCCC/C=C\C/C=C\C/C=C\C/C=C\CCCC(=O)OCC(O)COP(=O)([O-])OCC[N+](C)(C)C` (centres unmarked) [Arachidonoyl-lysoPC, 1-Arachidonoyl lysophosphatidylcholine], at leukocyte LOX, the “minor product behaving like 15-HETE in leukocyte LOX-catalyzed oxygenation” value was no more than 5%. Moreover, on soybean LOX-1, the Km was determined as 5.37 ± 1.6 µM and the Vm is 97.0 ± 8.2 units/μg. For the same compound, on soybean LOX-1 (listed as arachidonoyl-lysoPC), the Km is 5.4 µM and the Vm amounted to 97.0 units/μg.
